{"source": "patent US7084141B2", "about": "“Inhibitors of macrophase migration inhibitory factor and methods for identifying the same” (Avanir Pharmaceuticals, priority 2001, dated 2006)", "key": {"[1]": {"biological_target": "T1, MIF produced by THP-1 cells (Homo sapiens, UniProt P14174)", "T1 construct": "a test cell may express the MIF naturally (e.g., THP-1 cells); endogenous in cells; host or cells: THP-1 cells stimulated with LPS", "T1 sequence (P14174 2-115 limits assumed)": "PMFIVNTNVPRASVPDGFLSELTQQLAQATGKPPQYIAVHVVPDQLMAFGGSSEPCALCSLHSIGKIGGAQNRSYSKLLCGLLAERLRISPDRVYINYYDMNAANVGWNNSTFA", "test": "ELISA of immunoreactive MIF from LPS stimulated THP-1 cells treated with compound", "assay_type": "cell-based", "method": "Alternatively, ELISA may be preferred to detect and quantify the amount of MIF in cell supernatants. ELISA is preferred for detection in high throughput screening. Briefly, 96-well plates are coated with an anti-MIF antibody or anti-tag antibody, washed, and blocked with 2% BSA. Cell supernatant is then added to the wells. Following incubation and washing, a second antibody (e.g., to MIF) is added. The second antibody may be coupled to a label or detecting reagent, such as an enzyme or to biotin. Following further incubation, a developing reagent is added and the amount of MIF determined using an ELISA plate reader. The developing reagent is a substrate for the enzyme coupled to the second antibody (typically an anti-isotype antibody) or for the enzyme coupled to streptavidin. Suitable enzymes are well known in the art and include horseradish peroxidase, which acts upon a substrate (e.g., ABTS) resulting in a colorimetric reaction. It is recognized that rather than using a second antibody coupled to an enzyme, the anti-MIF antibody may be directly coupled to the horseradish peroxidase, or other equivalent detection reagent. If desired, cell supernatants may be concentrated to raise the detection level. Further, detection methods, such as ELISA and the like may be employed to monitor intracellular as well as extracellular levels of MIF. When intracellular levels are desired, a cell lysate is preferred. When extracellular levels are desired, media can be screened.\nIn another experiment (FIG. 2), varying concentrations of five different inhibitor analogs were added to LPS stimulated THP-1 cells and allowed to incubate overnight. The following day the amount of immunoreactive MIF detected was evaluated by ELISA. Compound 7e inhibited the ability of the antibody to recognize MIF in a dose dependent fashion with an ED50 of 2 μM, similar to the response obtained with analogs compound 7b and compound 7d.\nIn a further experiment (FIG. 3), the ability of compound 7e to decrease the immunoreactivity of MIF produced by THP-1 cells was determined. THP-1 cells were treated with 10 μg/ml of LPS and 10 μM of compound 7e was added at various times post-LPS stimulation and immunoreactivity monitored with an anti-MIF monoclonal. […] Thus, this experiment measures the activity of compounds or buffer alone controls on MIF detection when the compounds are initially added at various times to cell cultures and then the corresponding conditioned media samples are processed in a time dependent fashion thereafter."}, "serum MIF": {"test_system": "serum MIF", "test": "Serum MIF after LPS/galactosamine challenge in mice (ELISA)", "assay_type": "in vivo, mouse", "method": "Doses of lipopolysacchraride (LPS) were made fresh prior to each experiment. LPS (Escherichia Coli 0111:B4, Sigma) was reconstituted by adding 0.5% TEA (1 ml USP water+[…] Triethylamine (Pierce)) to a vial of 5 mg endotoxin. Once reconstituted, the solution was incubated at 37° C. for 30 minutes. Subsequently, the solution was sonicated in a 56–60° C. bath sonicator for 30 seconds 3 times. Following sonication the mixture was vortexed for 3 minutes continuously. The stock solution of LPS was then ready for use.\nTen 10-week-old (20±2 gram) female BALB/c mice (Charles River Laboratories, Kingston, N.Y.) were housed in a group of 5 per cage with free access to food and water and were acclimatized for at least one week prior to experimentation. On the day of experiment, mice were weighed and randomly distributed into group of 10 animals of equal mean body weight. […] Mouse serum Il-1β and TNF-α were measured by ELISA using a “mouse IL 1β immunoassay or mouse TNF-α immunoassay” kits (R&D System Minneapolis, Minn.) following manufacturer's direction. Serum MIF concentrations in mouse serum were quantified by a sandwich ELISA (ChemiKine MIF Kit, Chemicon, San Diego, Calif.). Samples were analyzed in duplicate, and results were averaged. […]"}, "serum IL-1β": {"test_system": "serum IL-1β", "test": "Serum IL-1β after LPS challenge in mice (ELISA)", "assay_type": "in vivo, mouse", "settings": "20 mg/kg compound, LPS 5 mg/kg, four hours", "method": "(§1) Ten 10-week-old (20±2 gram) female BALB/c mice (Charles River Laboratories, Kingston, N.Y.) were housed in a group of 5 per cage with free access to food and water and were acclimatized for at least one week prior to experimentation. On the day of experiment, mice were weighed and randomly distributed into group of 10 animals of equal mean body weight. Mice were injected i.p. with 200 μL of formulated compound 7e or buffer alone immediately before the i.p. injection of LPS (Escherichia coli 0111:B4, 10 mg/kg or 5 mg/kg body weight) and β-D-galactosamine (50 mg/kg body weight). […] Mouse serum Il-1β and TNF-α were measured by ELISA using a “mouse IL 1β immunoassay or mouse TNF-α immunoassay” kits (R&D System Minneapolis, Minn.) following manufacturer's direction. Serum MIF concentrations in mouse serum were quantified by a sandwich ELISA (ChemiKine MIF Kit, Chemicon, San Diego, Calif.). Samples were analyzed in duplicate, and results were averaged.\n(§2) An initial control experiment was conducted to determine the base line levels of endogenous MIF in the murine model system (female Balb/c mice), and further to determine the rate and extent of increase in endogenous MIF following treatment with LPS (10 mg/kg). […] The level of MIF in serum was measured by HPLC as described above at 0, 2, 5 and 6 hours following LPS/galactosamine treatment. […]"}, "serum TNF-α": {"test_system": "serum TNF-α", "test": "Serum TNF-α after LPS challenge in mice (ELISA)", "assay_type": "in vivo, mouse", "settings": "20 mg/kg compound, LPS 5 mg/kg, four hours", "method": "as §1, §2"}}}
{"compound": "Cn1c(=O)c([N+](=O)[O-])c(N2CCN(C(=O)c3ccco3)CC2)c2ccccc21", "note": "[compound 7e]", "values": [{"measurement": "immunoreactivity of MIF with anti-MIF monoclonal", "setting": "[1]; 10 μM added at various times post-LPS (10 μg/ml)", "value": "immunoreactivity is rapidly lost"}, {"measurement": "EC50", "setting": "[1]; LPS stimulated THP-1 cells, incubated overnight, read-out: ED50, inhibition of the ability of the antibody to recognize MIF (ELISA)", "value": 2, "unit": "µM"}, {"measurement": "decrease in serum MIF", "setting": "serum MIF; 5 mg/kg LPS, four hours following treatment, p=0.0003", "value": 60, "unit": "%"}, {"measurement": "level of circulating MIF", "setting": "serum MIF; 10 mg/kg LPS, 20 mg/kg i.p., p=0.05", "value": "significant decrease in the level of circulating MIF"}, {"measurement": "serum IL-1β level", "setting": "serum IL-1β", "value": "reductions"}, {"measurement": "serum TNF-α level", "setting": "serum TNF-α", "value": "reductions"}]}
